Assay: Zeta potential before and after incubation with NE
Format: physicochemical
Conditions: 20 µM, mean ± s.d., n = 3
Method: Submitted to Advanced Science temperature. Following the incubation, 10 µL of the solution was added to a copper mesh at 0 and 24 h. Filter paper was used to remove any extra droplets after an overnight stay. The samples were then stained for five minutes with uranyl acetate and then rinsed for one minute with water (10 µL). Finally, dried samples were observed by TEM (Talos 120C, Thermo Fisher Scientific, USA). DLS (Zetasizer Nano ZS, UK) was used to assess the solution for hydrodynamic size and zeta potential at 0 and 24 h following the incubation. Then, the nanofiber structure at 0 h and 24 h after incubation of FTP-NPs was examined with Circular Dichroism (CD) Spectra (Chirascan, UM, Britain). In addition, the variation of fluorescence emission spectra of PpIX by […]
transformation of FTP-NPs.
Pyrene molecules were employed as an indicator to determine the critical aggregation concentration (CAC) of nanoparticles by comparing the fluorescence of their third and first emissive peaks. […] The fluorescence spectra of pyrene (excitation, 335 nm) in different NPs dilutions were recorded. The fluorescence intensity ratio (I3/I1) of the third and first emissive peaks was measured for CAC calculation. […]
Figure S3. […] (a, b) Changes in fluorescence and UV–vis absorption of FTP-NPs following the gradual addition of water (from 0 to 99.5%) to a solution of NPs in Dimethyl Sulfoxide (DMSO). […]

In the case of PpIX-GFFVLK-EAIPMSIPPEVK [FTP-NPs], the “zeta potential, initial NPs” value (before fibrillar transformation) is reported as 21.7±0.6 mV and the “zeta potential after fibrillar transformation” value (with NE for 24 h) is reported as 9.2±0.2 mV.

— paper PMC12767106, “In Situ Assembly of Transformable Monopeptide on Activated Neutrophils Attenuates NETs‐Induced Hepatocellular Carcinoma Metastasis by Disrupting NE Nuclear Translocation” (Advanced Science, 2025)
